# Reference: patent publication US20070207121A1, “Methods of Using and Compositions Comprising Selective Cytokine Inhibitory Drugs for Treatment and Management of Macular Degeneration” (priority 2003, published 2007)
# Assays:
# [1] = test system: patients with macular degeneration; assay: Clinical study in patients with macular degeneration, adjuvant to photodynamic therapy with verteporfin; type: in vivo, human; details: about 20 mg/day as adjuvant for 20 weeks with verteporfin photodynamic therapy
# Description: Selective cytokine inhibitory drugs of the invention are administered in an amount of about 20 to about 1,200 mg per day to patients with macular degeneration. In a specific embodiment, clinical studies are performed with forty patients with macular degeneration, who are divided into two groups. The first group receives conventional treatment for closing the leaking choroidal vessels (characteristic of this disease) by photodynamic therapy with verteporfin. Opthalmol 1999 (117): 1329-1345. The second group receives the same conventional therapy with verteporfin and (+)-2-[1-(3-ethoxy-4 methoxyphenyl)-2-methylsulfonylethyl]-4 acetylaminoisoindoline 1,3-dione in an amount of about 20 mg/day as an adjuvant for 20 weeks.
# However, the first group without (+)-2-[1-(3-ethoxy-4 methoxyphenyl)-2-methylsulfonylethyl]-4-acetylaminoisoindoline 1,3-dione experiences progressive reperfusion of the ablated vessels several weeks after treatment. Progressive visual loss follows which requires the photodynamic therapy to be repeated.
# TNF-α production = assay: Inhibition of TNF-α production following LPS-stimulation of human PBMC and human whole blood (in vitro pharmacology studies); type: cell-based; details: more potent than thalidomide
# Excerpt: One of the biological effects typically exerted by selective cytokine inhibitory drugs is the reduction of synthesis of TNF-α Specific selective cytokine inhibitory drugs enhance the degradation of TNF-αmRNA. TNF-α may play a pathological role in macular degeneration.
# In a specific embodiment, the pharmacological properties of 3-(3,4-dimethoxy-phenyl)-3-(1-oxo-1,3-dihydro-isoindol-2-yl)-propionamide are characterized in in vitro studies. Studies examine the effects of the compound on the production of various cytokines. Inhibition of TNF-α production following LPS-stimulation of human PBMC and human whole blood by the compound is investigated in vitro. […] The pharmacological effects of 3-(3,4-dimethoxy-phenyl)-3-(1-oxo-1,3-dihydro-isoindol-2-yl)-propionamide may derive from its action as an inhibitor of the generation of inflammatory cytokines.
# laser-induced CNVM = details: intravitreal injection, monkeys; cited from earlier work
# patients with MD = details: intravitreal injection, over a one-year period; cited from earlier work
# MD = details: cited from earlier work
molecule,measurement,setting,value
"CCOc1cc(C(CS(C)(=O)=O)N2C(=O)c3cccc(NC(C)=O)c3C2=O)ccc1OC (single isomer, unassigned; (+)) [(+)-2-[1-(3-ethoxy-4 methoxyphenyl)-2-methylsulfonylethyl]-4 acetylaminoisoindoline 1,3-dione]",effects of the photodynamic therapy,[1],indefinitely prolong
same,neovascular cascade,[1],sufficiently hindered
"COc1ccc(C(CC(N)=O)N2Cc3ccccc3C2=O)cc1OC (stereo not shown) [3-(3,4-dimethoxy-phenyl)-3-(1-oxo-1,3-dihydro-isoindol-2-yl)-propionamide]","pharmacological activity profile, potency relative to thalidomide",TNF-α production,five to fifty
C[C@]12C=CC(=O)C=C1CC[C@H]1[C@@H]3C[C@@H](O)[C@](O)(C(=O)CO)[C@@]3(C)C[C@H](O)[C@@]12F [triamcinolone],growth of laser-induced CNVM,laser-induced CNVM,inhibits
same,prevention of severe visual loss,patients with MD,fails to prevent severe visual loss
interferon-α,efficacy at treating MD,MD; clinical trial,ineffective
same,adverse effects,MD; in vivo,high rate of adverse effects
